# Laboratory results taken from the NIST ThermoML archive (doi:10.1016/j.tca.2015.04.021).
# Numbers after ± are expanded uncertainties.
# Assay: molar enthalpy of vaporization or sublimation
# Details: Liquid, TGA
smiles,measurement,setting,value
Cn1cc[n+](CCC(F)(F)C(F)(F)F)c1.O=S(=O)([N-]S(=O)(=O)C(F)(F)F)C(F)(F)F,molar enthalpy,527.7 K,27.2 ± 0.621 kcal/mol
Cn1cc[n+](CCC(F)(F)C(F)(F)C(F)(F)C(F)(F)C(F)(F)C(F)(F)C(F)(F)C(F)(F)F)c1.O=S(=O)([N-]S(=O)(=O)C(F)(F)F)C(F)(F)F,molar enthalpy,531.8 K,30.5 ± 0.669 kcal/mol
Cn1cc[n+](CCC(F)(F)C(F)(F)C(F)(F)C(F)(F)C(F)(F)C(F)(F)F)c1.O=S(=O)([N-]S(=O)(=O)C(F)(F)F)C(F)(F)F,molar enthalpy,532.3 K,30.1 ± 0.669 kcal/mol
